# Earlier results in patent publication US20210361677A1, “DOSING METHODS FOR TREATING INFLAMMATORY BOWEL CONDITIONS” (priority 2020, published 2021).
# Conditions: enema by prior methods, two patients, FIG. 1
compound,measurement,value
"Nc1ccc(O)c(C(=O)O)c1 [5-ASA, 5-aminosalicylic acid]",systemic (plasma) levels of 5-ASA after bowel movements,dramatically lower
